Results on 13 compounds are retold here after PubChem BioAssay (NCI).

Test systems include HS 578T breast; IGROV1 ovarian; LOX IMVI melanoma; MDA-MB-435; SF-268 CNS; SN12C renal; SNB-19 CNS; SR leukemia; T-47D breast; UACC-62 melanoma.
Experiment in all cases: NCI tumour cell line growth inhibition, 48 h

Several values for one entry are separate records, joined by “and”; a condition that tells them apart may be missing. Equal entries are not always repeated.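 How tested: cells in 96-well plates exposed to compound for 48 hours at five concentrations. Abbreviation: GI50, concentration required for 50% inhibition of growth. At the TGI there is no net growth.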

Consider `Cc1cc(NCCN(C(C)C)C(C)C)nc(/N=C(\N)Nc2ccc(Cl)c(C(F)(F)F)c2)n1`, for which the GI50 in the assay on HS 578T breast is 473 nM; in the assay with IGROV1 ovarian, 819 nM; in the assay with LOX IMVI melanoma it was 193 nM; with MDA-MB-435, 196 nM; in the assay with SF-268 CNS it was 670 nM; with SN12C renal, 1.34 µM. Besides, the GI50 with SNB-19 CNS was 1.48 µM; in the assay on SR leukemia, 155 nM; with T-47D breast, 183 nM; with UACC-62 melanoma, 0.198 µM. In addition, the TGI with HS 578T breast is 1.69 µM; in the assay with IGROV1 ovarian, 2.75 µM; with LOX IMVI melanoma, 0.365 µM; in the assay with MDA-MB-435 it was 0.389 µM; in the assay with SF-268 CNS, 1.76 µM; with SN12C renal it was 2.87 µM. In addition, the TGI in the assay with SNB-19 CNS stood at 2.83 µM; in the assay on SR leukemia it was 0.425 µM; with T-47D breast it was 0.361 µM; in the assay with UACC-62 melanoma, 0.417 µM.

In the case of `O=C(Cn1c(=O)c(-c2ccccc2)nc2ccccc21)Nc1ccc(F)cc1`, the GI50 is 29900 nM in the assay on HS 578T breast; 89600 nM in the assay on IGROV1 ovarian; greater than 100000 nM in the assay with LOX IMVI melanoma; greater than 100000 nM with MDA-MB-435; greater than 100000 nM with SF-268 CNS; 77.5 µM in the assay with SN12C renal. In addition, the results for the GI50 in the assay on SNB-19 CNS, with T-47D breast and with UACC-62 melanoma were 41.8 µM, 50800 nM and 67.5 µM, respectively. In addition, the TGI with HS 578T breast was 88.8 µM; in the assay with IGROV1 ovarian, greater than 100 µM; in the assay on LOX IMVI melanoma, greater than 100 µM; in the assay on MDA-MB-435, greater than 100 µM; in the assay with SF-268 CNS, greater than 100 µM; in the assay with SN12C renal it was greater than 100 µM. Besides, the TGI with SNB-19 CNS, in the assay with T-47D breast and in the assay with UACC-62 melanoma was greater than 100 µM in each case.

With `Cc1cc(O)c(C2=NN(c3ccc(S(N)(=O)=O)cc3)C(c3ccccc3Cl)C2)cc1Cl` (stereo not drawn), the GI50 in the assay on HS 578T breast was 3280 nM; in the assay with IGROV1 ovarian it was 2580 nM; in the assay on LOX IMVI melanoma, 1780 nM; in the assay on MDA-MB-435, 1850 nM; with SN12C renal, 2.55 µM; with SNB-19 CNS, 3.54 µM. Besides, the values for the GI50 in the assay on SR leukemia, with T-47D breast and in the assay on UACC-62 melanoma were 2970 nM, 2810 nM and 3.71 µM, respectively. For the same compound, the TGI was greater than 100 µM in the assay on HS 578T breast; 14 µM in the assay with IGROV1 ovarian; 3.21 µM in the assay on LOX IMVI melanoma; 3.92 µM with MDA-MB-435; 6.32 µM in the assay with SN12C renal; 16.3 µM with SNB-19 CNS. The values for the TGI with SR leukemia, in the assay on T-47D breast and with UACC-62 melanoma were greater than 100 µM, 10.3 µM and 14.4 µM, respectively.

For `O=c1oc(Cl)c(Cl)c2ccccc12`, the GI50 with HS 578T breast is 35100 nM; in the assay on IGROV1 ovarian, 23200 nM; in the assay on LOX IMVI melanoma, 17600 nM; with MDA-MB-435, 22300 nM; with SF-268 CNS, 38200 nM; with SN12C renal, 14.8 µM. Besides, the figures for the GI50 in the assay on SNB-19 CNS, in the assay with T-47D breast and in the assay with UACC-62 melanoma were 27.9 µM, 40600 nM and 32.9 µM, respectively. Further, the TGI was 96.2 µM in the assay with HS 578T breast; 63.2 µM in the assay on IGROV1 ovarian; 51.9 µM in the assay with LOX IMVI melanoma; 45.9 µM with MDA-MB-435; greater than 100 µM with SF-268 CNS; 31.4 µM with SN12C renal. The TGI in the assay on SNB-19 CNS, in the assay with T-47D breast and with UACC-62 melanoma was greater than 100 µM each time.

Consider `Cc1ccc(C(CC(=O)c2ccccc2)C2C(=O)NC(=O)NC2=O)cc1` (stereo not drawn), for which the GI50 in the assay with HS 578T breast was greater than 100000 nM; in the assay on IGROV1 ovarian it was greater than 100000 nM; in the assay on LOX IMVI melanoma it was greater than 100000 nM; with MDA-MB-435, greater than 100000 nM; with SF-268 CNS, greater than 100000 nM; with SN12C renal, greater than 100 µM. Besides, the GI50 is greater than 100 µM with SNB-19 CNS, greater than 100000 nM with T-47D breast and greater than 100 µM in the assay with UACC-62 melanoma. In addition, the TGI in the assay with HS 578T breast, in the assay with IGROV1 ovarian, in the assay on LOX IMVI melanoma, in the assay with MDA-MB-435, in the assay on SF-268 CNS and with SN12C renal was greater than 100 µM each time. Moreover, the TGI in the assay with SNB-19 CNS, with T-47D breast and in the assay on UACC-62 melanoma was greater than 100 µM each time.

`OCC(O)C(Cl)CCl` (stereo not drawn): the TGI in the assay with HS 578T breast, with IGROV1 ovarian, in the assay on SF-268 CNS, in the assay on SN12C renal, in the assay on SNB-19 CNS and with SR leukemia was greater than 100 µM each time. For the same compound, the TGI with T-47D breast and in the assay on UACC-62 melanoma was greater than 100 µM throughout.

In the case of `O=c1cc(-c2ccccc2F)[nH]c2ccc(N3CCCC3)cc12`, the GI50 was less than 1 nM in the assay on HS 578T breast; less than 1 nM in the assay on IGROV1 ovarian; less than 1 nM in the assay on LOX IMVI melanoma; less than 1 nM with SF-268 CNS; less than 0.001 µM in the assay on SN12C renal; less than 0.001 µM in the assay on SNB-19 CNS. For the same compound, the GI50 was less than 1 nM with SR leukemia, greater than 100000 nM in the assay on T-47D breast and less than 0.001 µM in the assay with UACC-62 melanoma. Besides, the TGI is greater than 100 µM with LOX IMVI melanoma; greater than 100 µM in the assay with SN12C renal; 0.0725 µM in the assay on SNB-19 CNS; greater than 100 µM in the assay on T-47D breast; greater than 100 µM with UACC-62 melanoma.

On to `CCOC(=O)c1c2c(n(Cc3ccc(Cl)cc3Cl)c1C)-c1nc[nH]c1C(=O)C2=O`, for which the GI50 was 23100 nM in the assay on HS 578T breast; 11200 nM in the assay on IGROV1 ovarian; 3540 nM with LOX IMVI melanoma; 13500 nM in the assay on MDA-MB-435; 7890 nM in the assay with SF-268 CNS; 3.02 µM in the assay on SN12C renal. Also, the values for the GI50 in the assay with SNB-19 CNS, in the assay with SR leukemia and in the assay on T-47D breast were 12.6 µM, 1210 nM and 1650 nM, respectively. Also, the TGI in the assay with HS 578T breast is 74.5 µM; in the assay on IGROV1 ovarian, 24 µM; in the assay with LOX IMVI melanoma, 13.7 µM; in the assay with MDA-MB-435, 30.1 µM; in the assay on SF-268 CNS, 20.4 µM; in the assay with SN12C renal it was 13.1 µM. The TGI in the assay with SNB-19 CNS stood at 26.2 µM; in the assay with SR leukemia, 2.79 µM; in the assay with T-47D breast, 5.03 µM.

`COC1/C=C/C(C)C(C(C)C(OC)C(C)CCC(=O)C(C)C(C/C=C/N(C)C=O)OC)OC(=O)/C=C/C=C(\C)CC(OC)CC2=CC(=O)O[C@H](C2)C(C)C(OC)CC(OC)/C=C/C(C)C(OC)C1` (stereo partly drawn): the GI50 with HS 578T breast is 29.7 nM; in the assay with IGROV1 ovarian it was 15.9 nM; in the assay on MDA-MB-435, 30.3 nM; in the assay on SF-268 CNS, 40 nM; in the assay with SN12C renal it was 0.143 µM; in the assay on SNB-19 CNS, 0.052 µM. Also, the GI50 is 3.11 nM with SR leukemia, 168 nM in the assay on T-47D breast and 0.0515 µM with UACC-62 melanoma. For the same compound, the TGI is 0.071 µM and 0.0601 µM with HS 578T breast; 0.053 µM and 0.0341 µM in the assay with IGROV1 ovarian; 0.472 µM and 0.311 µM with MDA-MB-435; 0.485 µM and 0.612 µM in the assay on SF-268 CNS; 47.5 µM in the assay with SN12C renal; 0.212 µM and 0.0904 µM in the assay with SNB-19 CNS. In the assay with T-47D breast, the TGI is 0.488 µM.

With `O=[N+]([O-])c1ccc2c(c1)Cc1cc(N=Cc3ccc4c(c3)OCO4)ccc1-2`, the TGI in the assay with HS 578T breast, in the assay on IGROV1 ovarian, with LOX IMVI melanoma, in the assay with MDA-MB-435, in the assay on SF-268 CNS and in the assay on SN12C renal was greater than 100 µM throughout. The TGI with SNB-19 CNS, with T-47D breast and in the assay with UACC-62 melanoma was greater than 100 µM in each case.

Consider `Cc1cc(Cl)ccc1Nc1nc(C(F)(F)F)ccc1C(=O)N/N=C/c1ccc(Cl)cc1`, for which the GI50 in the assay with HS 578T breast was 2530 nM; in the assay on IGROV1 ovarian it was 3310 nM; in the assay with LOX IMVI melanoma it was 1380 nM; in the assay with MDA-MB-435, 1420 nM; in the assay on SF-268 CNS it was 1350 nM; in the assay on SN12C renal it was 2.22 µM. The results for the GI50 with SNB-19 CNS, with T-47D breast and in the assay on UACC-62 melanoma were 2.6 µM, 2170 nM and 2.14 µM, respectively. The TGI came out at 9.62 µM with HS 578T breast; 13.6 µM in the assay on IGROV1 ovarian; 11.7 µM with LOX IMVI melanoma; 3.89 µM in the assay with MDA-MB-435; 10.1 µM in the assay on SF-268 CNS; 9 µM in the assay with SN12C renal. In addition, the TGI with SNB-19 CNS stood at 12.4 µM; in the assay on T-47D breast, 9.26 µM; with UACC-62 melanoma, 5.33 µM.

Take `COc1ccc(/C=C/C(=O)c2ccc(O)c(CN3CCN(c4cc5c(cc4F)c(=O)c(C(=O)O)cn5C4CC4)CC3)c2)cc1`: the GI50 in the assay with HS 578T breast is 714 nM; with IGROV1 ovarian, 1270 nM; in the assay with MDA-MB-435, 2170 nM; with SF-268 CNS, 2320 nM; in the assay on SNB-19 CNS it was 0.785 µM; with SR leukemia it was 354 nM. Further, the results for the GI50 with T-47D breast and with UACC-62 melanoma were 1830 nM and 1.32 µM, respectively. In addition, the TGI was greater than 100 µM in the assay on HS 578T breast; greater than 100 µM with IGROV1 ovarian; greater than 100 µM in the assay with MDA-MB-435; greater than 100 µM in the assay on SF-268 CNS; greater than 100 µM in the assay on SNB-19 CNS; 14.9 µM with SR leukemia. Also, the TGI in the assay with T-47D breast and with UACC-62 melanoma was greater than 100 µM each time.

As for `COc1cc(NC(C)CCCN)c2ncccc2c1` (stereo not drawn), the TGI in the assay with HS 578T breast, with IGROV1 ovarian, with LOX IMVI melanoma, in the assay with MDA-MB-435, in the assay with SF-268 CNS and with SN12C renal was greater than 100 µM in each case. For the same compound, the TGI in the assay on SNB-19 CNS is greater than 100 µM; with T-47D breast, greater than 53.2 µM; in the assay with UACC-62 melanoma, 51.9 µM and > 89.5 µM. Besides, the GI50 in the assay with SN12C renal was 41.4 µM and > 84.4 µM; in the assay with SNB-19 CNS, 39.8 µM and > 100 µM; in the assay on UACC-62 melanoma it was 20.3 µM and 45.3 µM.
